# Experimental data as given in patent US7034040B2, “Fluorinated heterocyclic compounds and methods of synthesis” (R.T. Alamo Ventures I, priority 2002, dated 2006).
# Tests used:
# [1] = tested on: PDE1; experiment: PDE1 enzyme inhibition assay; type: biochemical; conditions: 1000 μM compound, 1% DMSO vehicle, bovine heart enzyme
# Excerpt: (§1) In this example, monofluoroflosequinan was subjected to biochemical enzyme assays and radioligand binding assays to determine its percent inhibition of a variety of enzyme activities and its percent inhibition of specific binding. The methods used have been adapted from those described in the scientific literature, see Hidaka and Asano “Human blood platelet 3′:5′ cyclic nucleotide phosphodiesterase. Isolation of low-Km and high Km phosphodiesterase.” Biochem. Biophys. Acta 429:485 (1976); Nicholoson et al. “Differential modulation of tissue function and therapeutic potential of selective inhibitors of cyclic nucleotide phosphodiesterase isoenzymes” Trends Pharmacol. Sci. 12:19 (1991); Cortijo et al. “Investigation into the role of phosphodiesterase IV in bronchorelaxation, including studies with hyman bronchus.” Br. J Pharmacol. 108:562 (1993); Baehr et al. “Isolation and characterization of cGMP phosphodiesterase from bovine rod outer segments.” J. Biol. Chem. 254:11669 (1979), Gillespie and Beavo “Inhibition and stimulation of photoreceptor phosphodiesterase by dipyridamole and M&B 22,948” Molecular Pharm. […]
# PDE1: PDE1 partially purified from bovine heart was used. […] Unhydrolyzed cAMP was bound to AGI-X2 resin, and the remaining [^3H]adenosine in the aqueous phase was quantitated by scintillation counting.
# [2] = target: T1, PDE3 (Homo sapiens, UniProt Q14432); experiment: PDE3 enzyme inhibition assay; type: biochemical; conditions: 1000 μM compound, 1% DMSO vehicle, human platelet enzyme
# T1 construct: PDE3 partially purified from human platelets was used; from tissue; host or cells: human platelets
# Excerpt: as §1
# PDE3: PDE3 partially purified from human platelets was used. […] Unhydrolyzed cAMP was bound to AGI-X2 resin, and the remaining [^3H]adenosine in the aqueous phase was quantitated by scintillation counting.
# [3] = tested on: PDE4; experiment: PDE4 enzyme inhibition assay; type: biochemical; conditions: 1000 μM compound, 1% DMSO vehicle, human U-937 cell enzyme
# Excerpt: as §1
# PDE4: PDE4 partially purified from human U-937 pronocytic cells was used. […] Unhydrolyzed cAMP was bound to AGI-X2 resin, and the remaining [^3H]adenosine in the aqueous phase was quantitated by scintillation counting.
# [4] = tested on: Protein Serine/Threonine Kinase PKC, Non-Selective; experiment: Protein serine/threonine kinase PKC, non-selective, enzyme assay; type: biochemical; conditions: rat brain enzyme
# Excerpt: In this example, monofluoroflosequinan was subjected to biochemical enzyme assays and radioligand binding assays to determine its percent inhibition of a variety of enzyme activities and its percent inhibition of specific binding. The methods used have been adapted from those described in the scientific literature, see Hidaka and Asano “Human blood platelet 3′:5′ cyclic nucleotide phosphodiesterase. Isolation of low-Km and high Km phosphodiesterase.” Biochem. Biophys. Acta 429:485 (1976); Nicholoson et al. “Differential modulation of tissue function and therapeutic potential of selective inhibitors of cyclic nucleotide phosphodiesterase isoenzymes” Trends Pharmacol. Sci. 12:19 (1991); Cortijo et al. “Investigation into the role of phosphodiesterase IV in bronchorelaxation, including studies with hyman bronchus.” Br. J Pharmacol. 108:562 (1993); Baehr et al. “Isolation and characterization of cGMP phosphodiesterase from bovine rod outer segments.” J. Biol. Chem. 254:11669 (1979), Gillespie and Beavo “Inhibition and stimulation of photoreceptor phosphodiesterase by dipyridamole and M&B 22,948” Molecular Pharm. 36:773 (1989); Tamaoki and Nakano “Potent and specific inhibitors of protein kinase C of microbial origin” Biotechnology 8:732 (1990); Wilkinson et al. “Isoenzyme specificity of bisindolymaleimides, selective inhibitors of protein kinase C” Biochem. J 294:335 (1993); Tamaki et al. “Staurosporine, a potent inhibitor of phospholipid/Ca++dependent protein kinase” Biochem. Biophys. Res. Comm, 135:397 (1986); Schoemaker and Langer “[3H]Diltiazem binding to calcium channel antagonist recognition sites in rate cerebral cortex” Eur. J Pharmacol. 111:273 (1985); Ehlert et al. “The binding of [3H]nitrendipine to receptors for calcium channel antagonists in the heart, cerebral cortex and ileum of rats.” Life Sci. 30:2191 (1982); Gould et al. “[3H]nitrendipine-labeled calcium channels discriminate inorganic calcium agonists and antagonists” Proc. Natl. Acad. Sci. USA 79:3656 (1982); Reynolds et al. “(−)−[3H]Desmethoxyverapamil labels multiple calcium channel modulator receptors in brain and skeletal muscle membranes: Differentiation by temperature and dihydropyridines” J Pharmacol. Exp. Ther. 237:731 (1986) and Worley et al. “Characterization of inositol triphosphate receptor binding in brain. Regulation by pH and calcium” J Biol. Chem. 262:12132 (1987). A brief summary of the conditions for each assay is provided below:
# Protein Serine/Threonine Kinase PKC, Non-Selective: The enzyme was obtained from rat brain and the substrate was 370 μg/ml histone. The reaction was pre-incubated 5 min at 25° C., followed by a 15 min incubation at 25° C. in a buffer of 20 mM Tris-HCl, 10 mM MgCl2.Ho and 0.1 mM CaCl2.2HO, pH 7.4. [^32P]histone was quantitated.
# [5] = target: Calcium Channel Type L, Dihydropyridine; conditions: Wistar rat cerebral cortex, 90 min at 25° C.; read-out: Kd (historical value of the radioligand); cited from earlier work
# T1 sequence (Q14432 whole entry): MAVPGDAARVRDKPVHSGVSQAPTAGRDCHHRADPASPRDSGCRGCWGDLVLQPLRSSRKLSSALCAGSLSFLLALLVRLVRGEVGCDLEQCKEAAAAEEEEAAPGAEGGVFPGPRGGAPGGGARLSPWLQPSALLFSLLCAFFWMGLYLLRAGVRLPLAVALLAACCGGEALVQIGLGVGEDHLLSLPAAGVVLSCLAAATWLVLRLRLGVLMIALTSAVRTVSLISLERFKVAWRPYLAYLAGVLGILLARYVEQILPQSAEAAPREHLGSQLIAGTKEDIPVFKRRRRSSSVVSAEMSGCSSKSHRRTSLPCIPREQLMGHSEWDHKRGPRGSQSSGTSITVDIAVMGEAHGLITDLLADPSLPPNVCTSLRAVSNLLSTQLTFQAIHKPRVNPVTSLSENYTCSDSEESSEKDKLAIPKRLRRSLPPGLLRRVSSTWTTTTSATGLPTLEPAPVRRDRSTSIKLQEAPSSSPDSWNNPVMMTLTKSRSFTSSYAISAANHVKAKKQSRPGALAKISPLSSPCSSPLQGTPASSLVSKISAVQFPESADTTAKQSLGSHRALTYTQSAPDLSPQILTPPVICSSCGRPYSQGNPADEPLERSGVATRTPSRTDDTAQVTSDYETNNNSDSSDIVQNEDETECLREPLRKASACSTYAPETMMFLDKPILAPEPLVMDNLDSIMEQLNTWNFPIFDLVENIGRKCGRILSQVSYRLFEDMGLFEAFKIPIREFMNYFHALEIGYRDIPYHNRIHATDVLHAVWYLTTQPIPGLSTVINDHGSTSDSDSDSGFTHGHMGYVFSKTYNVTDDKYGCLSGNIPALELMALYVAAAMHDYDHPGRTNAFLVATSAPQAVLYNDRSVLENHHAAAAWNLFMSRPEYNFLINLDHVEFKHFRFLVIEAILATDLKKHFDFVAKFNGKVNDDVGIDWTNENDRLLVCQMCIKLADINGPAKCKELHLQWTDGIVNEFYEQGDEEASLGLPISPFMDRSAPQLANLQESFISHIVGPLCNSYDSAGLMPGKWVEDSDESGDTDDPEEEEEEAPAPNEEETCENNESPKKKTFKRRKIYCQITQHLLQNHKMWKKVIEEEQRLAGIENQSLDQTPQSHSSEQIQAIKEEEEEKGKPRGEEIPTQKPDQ
compound,measurement,setting,value
Cn1cc(S(=O)(=O)C(F)F)c(=O)c2ccc(F)cc21 [3-difluoromethylsulfonyl-7-fluoro-1-methyl-4-quinolone],inhibition of PDE1,[1],greater than 50%
same,inhibition at 1000 µM,[2],> 50%
same,inhibition of PDE4,[3],greater than 50%
"Cn1cc([S+]([O-])C(F)F)c(=O)c2ccc(F)cc21 (stereo not shown) [difluoroflosequinan, 3-difluoromethylsulfinyl-7-fluoro-1-methyl-4-quinolone]",inhibition of PDE1,[1],greater than 50%
same,inhibition at 1000 µM,[2],> 50%
same,"inhibition of protein serine/threonine kinase, PKC, non-selective",[4]; 1000 μM compound,greater than 50%
CCOC(=O)C1=C(C)NC(C)=C(C(=O)OC)C1c1cccc([N+](=O)[O-])c1 (stereo not shown) [^3H Nitrendipine],Kd,[5],0.18 nM
"Cn1cc([S+]([O-])CF)c(=O)c2ccc(F)cc21 (racemic) [monofluoroflosequinan, 7-fluoro-3-fluoromethylsulfinyl-1-methyl-4-quinolone]","inhibition of protein serine/threonine kinase, PKC, non-selective",[4]; 100 μM compound,Significant inhibition
same,"inhibition of protein serine/threonine kinase, PKC, non-selective",[4]; 300 μM compound,Significant inhibition
same,"inhibition of protein serine/threonine kinase, PKC, non-selective","[4]; 1000 μM compound, 1% DMSO vehicle",Significant inhibition
